Data published in patent US20260306500A1, “METHOD OF INHIBITING ADENOSINE TRIPHOSPHATE SECRETION, METHOD OF INHIBITING HEPATIC STELLATE CELL ACTIVATION, METHOD OF DEACTIVATING HEPATIC STELLATE CELL, METHOD OF TREATING HEPATIC FIBROSIS, METHOD OF TREATING NON-ALCOHOLIC STEATOHEPATITIS, AND METHOD OF TREATING PSORIASIS” (Kurume University, priority 2023, published 2026).

Legend:
[1] = tested on: chromaffin granule membrane; test: ATP transport (uptake of radiolabeled ATP) in chromaffin granule membrane vesicles; type: biochemical, cattle; details: role: inhibitor; 1 mM 3H-ATP, 30° C., 1 hour, N=3 (FIG. 5); read-out: IC50 (concentration at 50% inhibition) of ATP transport
Method: Chromaffin granule membranes were prepared from adrenal glands collected from slaughtered cattle according to Reference A (Nathan Nelson et al., 1988, Chromaffin Granule Proton Pump, Methods in Enzymology, 157, 619-633). Chromaffin granule membranes prepared by sucrose density gradient centrifugation were suspended in 2 ml of SME buffer (20 mM MOPS-tris (pH 7.0), 0.3 M sucrose, 5 mM EDTA, 10 μg/ml leupeptin, and 10 μg/ml pepstatin)+25% glycerol, and the resulting suspension was aliquoted and stored at −80° C. Under these conditions, the ATP transport activity, the V-ATPase activity, and the catecholamine transport activity remain fully active for at least one year.
An ATP transport inhibition experiment for the chromaffin granule membrane was carried out according to Reference B (Yoshinori Moriyama et al., 2022, Is the vesicular nucleotide transporter a molecular target of eicosapentaenoic acid?, Frontiers in Pharmacology, 103389). About 20 μg of chromaffin granule membranes were added to 0.5 ml of measurement buffer (20 mM MOPS-tris (pH 7.0), 0.3 M sucrose, 5 mM potassium chloride, 5 mM magnesium acetate, 5 mM creatine phosphate, 10 units of creatine kinase, and 1 mM 3[H]-ATP [15 KBq/assay]), followed by incubation at 30° C. for 1 hour. Through a Millipore MCE membrane filter with a pore size […], 0.2 ml of the reaction liquid was filtered by suction. Thereafter, the filter was washed with 10 ml of 20 mM MOPS-tris (pH 7.0), 0.3 M sucrose, 5 mM potassium chloride, and 5 mM magnesium acetate, and dissolved in 10 ml of Clear-sol II (manufactured by Nacalai Tesque, Inc.). The radioactivity was then measured using a liquid scintillation counter (N=3).
The reaction was initiated by adding 50 mM ^3[H]-ATP to a final concentration of 1 mM. The 50 mM ^3[H]-ATP was prepared by mixing an ATP-tris solution (manufactured by Sigma-Aldrich) with [2,8-^3H]adenosine triphosphate tetrasodium salt (26.0 Ci/mmol) (manufactured by New England Nuclear). PEP was used as a test reagent, and pyruvic acid was used as a negative control. Five minutes before the addition of ATP, PEP or pyruvic acid, as a solution in 20 mM MOPS-tris (pH 7.0), 0.3 M sucrose, 5 mM potassium chloride, and 5 mM magnesium acetate, was added to the measurement liquid to a final PEP concentration of 0.02, 0.05, 0.1, 0.2, 0.4, or 1 mM, or to a final pyruvic acid concentration of 0.5 or 1 mM.
Chromaffin granule membrane vesicles were prepared in the same manner as in Example 5, and uptake of radiolabeled ATP into the vesicles was measured. Transport activity of catecholamine (dopamine) and ATP-dependent proton transport by V-ATPase were also measured in the same manner as in Example 5.

[2] = PEP; cited from earlier work
[3] = tested on: MCD diet-induced NASH model; details: administration of clodronate, Non Patent Literature 4; cited from earlier work
ATP secretion = details: known; cited from earlier work
LX-2 cells = test: ATP secretion from LX-2 cells; type: cell-based, human; details: 10 μM clodronate
Method: Cells of the immortalized human hepatic stellate cell line LX-2 (manufactured by Merck) was cultured in Dulbecco's modified Eagle's medium (DMEM, 4500 mg/l Glucose, D5796, manufactured by Sigma-Aldrich) supplemented with inactivated 2% fetal bovine serum (FBS), 10 IU/ml penicillin, and 10 IU/ml streptomycin in a T25 or T75 flask at 37° C. in 5% CO2.
LX-2 cells (2×10^6 cells per well) were seeded in a collagen-coated 6-well culture dish containing Dulbecco's modified Eagle's medium (manufactured by Sigma-Aldrich) supplemented with 10 IU/ml penicillin, […] 2% fetal bovine serum, and cultured in 5% CO2 at 37° C. After 3 days, the LX-2 cells were washed twice and preincubated in Krebs-Ringer buffer (10 mM HEPES-Tris, pH 7.4, 128 mM NaCl, 1.9 mM KCl, 1.2 mM KH2PO4, 1.3 mM MgSO4, 26 mM NaHCO3, 2.4 mM CaCl2, 10 mM glucose, 0.2% (w/v) bovine serum albumin) with or without 10 μM clodronate. The LX-2 cells were then stimulated with Krebs-Ringer buffer supplemented with ionomycin (manufactured by Cayman) regardless of whether clodronate was present or not. For the stimulation, 1 mM EGTA (manufactured by Dojindo) or 10 μM serotonin (5-HT, manufactured by Sigma-Aldrich) was used. The ATP concentration in the culture supernatant was measured in the same manner as in Example 6.
For an siRNA experiment, a TriFECTa (trademark) RNAi Kit (manufactured by Integrated DNA Technologies) was used. A scramble RNA (scRNA) as a control siRNA, or a VNUT-specific siRNA, was incubated with Lipofectamine 3000 reagent (manufactured by Invitrogen) in OptiMEM reduced-serum medium (#31985070, manufactured by Gibco) at room temperature for 15 minutes, and then added directly to the cultured cells. The LX-2 cells as the transfection mixture were plated, and then cultured for 48 hours. The base sequences of VNUT siRNA forward and VNUT siRNA reverse, used for the above kit, are shown in SEQ ID NOs: 1 and 2, respectively. A positive control for an endogenous gene (#51-01-08-02) and a negative control (#51-01-14-03) were used.

mouse auricle = test: Imiquimod-induced psoriasis relapse model (Example 20); type: in vivo; details: 40 mg/kg oral
Method: To the left auricle of each mouse, 62.5 mg of 5% imiquimod cream (Beselna Cream 5%) was applied once daily a total of seven times (Days 1 to 7) in accordance with Example 19 to induce imiquimod-induced psoriasis. Thereafter, the imiquimod treatment was interrupted, and imeglimin (40 mg/kg) was orally administered on alternate days for 2 weeks (Day 8 to 22) (IMG). Mice without administration of imeglimin were designated IMQ. On Day 23, the imiquimod treatment was resumed, and 62.5 mg of 5% imiquimod cream (Beselna Cream 5%) was applied once daily a total of […]. In parallel, imeglimin (40 mg/kg) was orally administered daily to IMG.

Compound: C=C(OP(=O)(O)O)C(=O)O [PEP, phosphoenolpyruvic acid]
- IC50 [1]: 25 µM
- permeation of the cell membrane [2]: freely permeate the cell membrane

Compound: O=P(O)(O)C(Cl)(Cl)P(=O)(O)O [clodronate]
- NASH activity score, inflammatory cell infiltration, and hepatic fibrosis [3]: improves
- ATP secretion inhibitory action (ATP secretion): known to have an ATP secretion inhibitory action
- 5-HT-promoted ATP secretion (LX-2 cells; 10 μM 5-HT, N=6 (FIG. 25)): strongly inhibited
- ATP exocytosis (LX-2 cells; ionomycin, N=6 (FIG. 24)): inhibited

Compound: C[C@@H]1N=C(N)NC(N(C)C)=N1 [imeglimin]
- relapse-preventing effect on psoriasis (mouse auricle): relapse-preventing effect on psoriasis
- psoriatic symptoms after resumed imiquimod treatment (mouse auricle; alternate days Day 8 to 22, then daily from Day 23 (FIG. 43)): markedly reduced compared to IMQ
